US10603335B2, “Cancer treatment combination compositions, methods and uses” (Board of Supervisors of Louisiana State University and …, priority 2016, dated 2020)

What was measured:
[1] = test system: XIAP, cIAP1 and cIAP2 mRNA in Panc-1 cells; test: Quantitative PCR of inhibitors of apoptosis, Panc-1; assay type: cell-based; conditions: 50 uM, 24 h post-treatment, relative to DMSO, GAPDH reference
Method: mRNA levels of XIAP, c-IAP1 and c-IAP2 were determined by quantitative real-time PCR using the SYBR Green Real-Time PCR Master Mix form ThermoFisher. Thermal cycling was carried out using the CFX system from BioRad under the following conditions: 95° C. for 10 min and 40 cycles at 95° C. for 15 s and 55° C. for 60 s. mRNA expression for any given gene is represented as comparative to the DMSO-treated cells. GAPDH was used as the housekeeping gene of reference.
GAPDH was used as a reference. Results presented in FIG. 12A (XIAP relative mRNA levels), FIG. 12B (cIAP1 relative mRNA levels), FIG. 12C (cIAP2 relative mRNA levels).

[2] = test system: cleaved PARP, XIAP and cIAP2 in BxPC-3 cells; test: Western blot of apoptosis markers and inhibitors of apoptosis, BxPC-3; assay type: cell-based; conditions: for XIAP and c-IAP2 protein levels: 24 h; for apoptosis marker cleaved PARP: 24 h post-treatment, LHRH-curcumin 10-100 uM, gemcitabine 1-20 uM
Method: (§1) Pancreatic cells were collected after trypsinization and seeded in 12-well plates for 24 h before treatments. Treatments were performed as described in the Figure legends. Following treatment, whole cell lysates were collected in Laemmli buffer and analyzed by Western blot. The following primary antibodies were used: XIAP, c-IAP2, cleaved PARP, Caspase-3 (all from Cell Signaling), actin (Santa Cruz) and LHRHR (Abcam).
(§2) Western blot analysis. Actin, GAPDH and Ponceau staining were used as loading controls. Gemcitabine was diluted in water. Curcumin and LHRH-curcumin were diluted in DMSO. Cells were treated as follows:
(§3) Western blot analysis. Actin, GAPDH and Ponceau staining were used as loading controls. Gemcitabine was diluted in water. Curcumin and LHRH-curcumin were diluted in DMSO.

PATX110 tissue slices = test: Live Tissue Sensitivity Assay (LTSA), PATX110; assay type: cell-based; conditions: 72 hours
Method: (§4) Animal experiment protocol was reviewed and approved by The University of Texas MD Anderson Cancer Center (Houston, Tex.) institutional review board and in accordance with the Guidelines for the Care and Use of Laboratory Animals published by the National Institutes of Health. PDXs were grown from cryopreserved early passages of PDXs in nude mice as described in previous publications (Kim M P, et al, Nat Protoc 2009; 4(11): 1670-80). Briefly, tumor samples stored in CryoStor™ CS10 storage medium were recovered and cut into about 2 mm3 fragments, soaked in Matrigel, and implanted into the subcutaneous space of Balb/c nude mice (5 mice/PDX). Tumors were harvested when they reach 1.5 cm in diameter for generating tissue slices for drug testing with quadruplicates.
(§5) About 100 tissue slices were produced from 1 tumorgraft with tissue slicer and arrayed in 96-well plates with previously established method (Roife D, et al, Clin Cancer Res 2016). […] Same volume of medium with 0.1% DMSO was added into control wells. After 72 hours, tissue viabilities were measured with PrestoBlue method. Viability inhibition will be calculated through normalization of viabilities of tissue slices treated with inhibitor against the viability of control (DMSO treated) slices. Inhibition of viability was further analyzed with t-test. […]

[3] = test system: LHRHR knock-down (KD) Panc-1 spheroides; test: 3D spheroid growth, LHRHR knock-down (KD) Panc-1; assay type: cell-based; conditions: LHRHR KD Panc-1; 30 μM
physchem = conditions: saline (PBS)
PATX162 tissue slices = test: Live Tissue Sensitivity Assay (LTSA), PATX162; assay type: cell-based; conditions: single agent, 72 hours
Method: as §4, §5

PATX153 tissue slices = test: Live Tissue Sensitivity Assay (LTSA), PATX153; assay type: cell-based; conditions: 72 hours
Method: as §4, §5

AsPC-1 spheroids = test: 3D spheroid growth (IncuCyte ZOOM), AsPC-1; assay type: cell-based; conditions: gemcitabine 0.5, 1.0, 5.0 μM, LHRH-curcumin 10, 20 μM, 5 days
Method: (§6) Panc-1 and Mia-Paca-2 cells were grown in 10% FBS DMEM. Cells were collected after trypsinization and resuspended in phenol-red free DMEM with 10% FBS. Cells were labeled with CellTracker Red (Life Techmologies) for 5 minutes. After labeling cells were washed with PBS and transfer into 96-well Corning 7007 ULA round bottom plates at 1,000 cells/well in 100 μl phenol-red free media with 10% FBS and 5% Matrigel. […] Spheroids were grown at 37° C. and 5% CO2 in IncuCyte ZOOM (Essen Bioscience). Images were acquired every 4 h for a period of 120 h post-treatment and software analysis was design to identify the red object in the well. The data were expressed as fold increase in spheroids size at the end of the treatment using the “average red object area in the well” as determined by the IncuCyte software analysis. Reproducibility was confirmed in three independent experiments. Spheroids grew at a uniform rate (FIG. 1).
Panc-1, Mia-Paca-2 and AsPC-1 spheroids were formed in 96-well round bottom plates as described. […] Media alone was used as control. The spheroids were grown for 5 days before quantification. Both gemcitabine and LHRH-curcumin were diluted in water.

PATX141 tissue slices = test: Live Tissue Sensitivity Assay (LTSA), PATX141; assay type: cell-based; conditions: 72 hours
Method: as §4, §5

PATX193 tissue slices = test: Live Tissue Sensitivity Assay (LTSA), PATX193; assay type: cell-based; conditions: 72 hours
Method: as §4, §5

PATX176 tissue slices = test: Live Tissue Sensitivity Assay (LTSA), PATX176; assay type: cell-based; conditions: 72 hours
Method: as §4, §5

[4] = test system: non-target control (NT) Panc-1 spheroides; test: 3D spheroid growth, non-target control (NT) Panc-1; assay type: cell-based; conditions: 30 μM
PATX55 tissue slices = test: Live Tissue Sensitivity Assay (LTSA), PATX55; assay type: cell-based; conditions: 72 hours
Method: as §4, §5

Mia-PaCa-2 spheroids = test: 3D spheroid growth (IncuCyte ZOOM), Mia-PaCa-2; assay type: cell-based, human; conditions: for size of the spheroids: MiaPaca-2, gemcitabine 0.5, 1.0, 5.0 μM, LHRH-curcumin 10, 20 μM, 5 days
Method: A protocol that enables the growth of identical size single cancer cell spheroids in Matrigel in 96 well plates has been developed.
as §6

PATX118 tissue slices = test: Live Tissue Sensitivity Assay (LTSA), PATX118; assay type: cell-based; conditions: 72 hours
Method: as §4, §5

[5] = test system: cleaved PARP, XIAP and cIAP2 in AsPC-1 cells; test: Western blot of apoptosis markers and inhibitors of apoptosis, AsPC-1; assay type: cell-based; conditions: for XIAP and c-IAP2 protein levels: 24 h; for apoptosis marker cleaved PARP: 24 h post-treatment, LHRH-curcumin 10-100 uM, gemcitabine 1-20 uM
Method: as §1, §2, §3

PATX92 tissue slices = test: Live Tissue Sensitivity Assay (LTSA), PATX92; assay type: cell-based; conditions: 72 hours
Method: as §4, §5

PATX213 tissue slices = test: Live Tissue Sensitivity Assay (LTSA), PATX213; assay type: cell-based; conditions: single agent, 72 hours
Method: as §4, §5

PATX173 tissue slices = test: Live Tissue Sensitivity Assay (LTSA), PATX173; assay type: cell-based; conditions: 72 hours
Method: as §4, §5

[6] = 50 uM in the presence of gemcitabine (5 uM)
[7] = curcumin, LHRH-curcumin 50 uM and 100 uM alone, gemcitabine alone

## COc1cc(/C=C/C(=O)CC(=O)/C=C/c2ccc(OC(=O)CCCC(=O)NCCCC[C@@H](NC(=O)[C@H](Cc3ccc(O)cc3)NC(=O)[C@H](CO)NC(=O)[C@H](Cc3c[nH]c4ccccc34)NC(=O)[C@H](Cc3c[nH]cn3)NC(=O)[C@@H]3CCC(=O)N3)C(=O)N[C@@H](CC(C)C)C(=O)N[C@@H](CCCNC(=N)N)C(=O)N3CCC[C@H]3C(=O)NCC(N)=O)c(OC)c2)ccc1O [LHRH-curcumin, [DLys6]-LHRH-Curcumin]
[1]
  mRNA levels of XIAP, cIAP1 and c-IAP2: down-regulated
[2]; [6]
  XIAP and c-IAP2 protein levels: down-regulated
[2]; [7]
  XIAP and c-IAP2 protein levels: down-regulated
[2]; curcumin
  apoptosis marker cleaved PARP: initiate apoptosis as illustrated by the presence of cleaved PARP
PATX110 tissue slices; single agent
  Sensitivity To LHRH-C: Sensitive (The tissue was defined as sensitive to the treatment if both p<0.05 and at least 30% of tissue slice viability on average was inhibited)
[3]
  spheroids growth: still has an effect on spheroids growth formed by LHRHR KD cells, its effect was inferior to that of curcumin alone
physchem
  solubility: ≥ 24 mg/mL
PATX162 tissue slices
  Sensitivity To LHRH-C: Sensitive (The tissue was defined as sensitive to the treatment if both p<0.05 and at least 30% of tissue slice viability on average was inhibited)
PATX153 tissue slices; single agent
  Sensitivity To LHRH-C: Sensitive (The tissue was defined as sensitive to the treatment if both p<0.05 and at least 30% of tissue slice viability on average was inhibited)
AsPC-1 spheroids
  size of the spheroids: decrease the size of the spheroids
PATX141 tissue slices; single agent
  Sensitivity To LHRH-C: Resistant
PATX193 tissue slices; single agent
  Sensitivity To LHRH-C: Sensitive (The tissue was defined as sensitive to the treatment if both p<0.05 and at least 30% of tissue slice viability on average was inhibited)
PATX176 tissue slices; single agent
  Sensitivity To LHRH-C: Resistant
[4]
  spheroids growth: superior to that of LHRH or curcumin alone
PATX55 tissue slices; single agent
  Sensitivity To LHRH-C: Sensitive (The tissue was defined as sensitive to the treatment if both p<0.05 and at least 30% of tissue slice viability on average was inhibited)
Mia-PaCa-2 spheroids; 10, 20 and 30 μM, 120 h
  efficiency on spheroids growth, Panc-1 versus Mia-PaCa-2: more efficient on Panc-1 cells than Mia-PaCa-2 cells
Mia-PaCa-2 spheroids
  size of the spheroids: decrease the size of the spheroids
PATX118 tissue slices; single agent
  Sensitivity To LHRH-C: Resistant
[5]; [6]
  XIAP and c-IAP2 protein levels: down-regulated
[5]; [7]
  XIAP and c-IAP2 protein levels: down-regulated
[5]; curcumin
  apoptosis marker cleaved PARP: initiate apoptosis as illustrated by the presence of cleaved PARP
PATX92 tissue slices; single agent
  Sensitivity To LHRH-C: Resistant
PATX213 tissue slices
  Sensitivity To LHRH-C: Sensitive (The tissue was defined as sensitive to the treatment if both p<0.05 and at least 30% of tissue slice viability on average was inhibited)
PATX173 tissue slices; single agent
  Sensitivity To LHRH-C: Resistant

## Nc1ccn([C@@H]2O[C@H](CO)[C@@H](O)C2(F)F)c(=O)n1 [gemcitabine, 2′,2′-difluoro 2′deoxycytidine, reference compound]
[2]; [7]
  XIAP and c-IAP2 protein levels: doesn't affect XIAP and c-IAP2 levels
[2]; curcumin
  apoptosis marker cleaved PARP: Low levels of cleaved PARP was detected
PATX110 tissue slices; Gem 10 μM
  tissue slice viability: 100.20
PATX153 tissue slices; Gem 10 μM
  tissue slice viability: 96.86
AsPC-1 spheroids
  size of the spheroids: decrease the size of the spheroids
PATX141 tissue slices; Gem 10 μM
  tissue slice viability: 105.35
PATX193 tissue slices; Gem 10 μM
  tissue slice viability: 92.70
PATX176 tissue slices; Gem 10 μM
  tissue slice viability: 88.23
PATX55 tissue slices; Gem 10 μM
  tissue slice viability: 95.45
Mia-PaCa-2 spheroids
  size of the spheroids: decrease the size of the spheroids
PATX118 tissue slices; Gem 10 μM
  tissue slice viability: 97.56
[5]; [7]
  XIAP and c-IAP2 protein levels: doesn't affect XIAP and c-IAP2 levels
[5]; curcumin
  apoptosis marker cleaved PARP: Low levels of cleaved PARP was detected
PATX92 tissue slices; Gem 10 μM
  tissue slice viability: 85.63
PATX173 tissue slices; Gem 10 μM
  tissue slice viability: 89.87
